Source: patent US12134788B2, “Engineered prephenate dehydrogenases and arogenate dehydrogenases and methods of using the same” (Wisconsin Alumni Research Foundation, priority 2017, dated 2024)
“And” between values parts separate entries of the source, which are not always exact repeats. Equal values may be shown once.

Experiments:
[1] = system: Peanut PDH/ADH (AipaensisVYE8T), Arachis ipaensis, wild type; test: ADH and PDH assay: steady-state kinetics and Tyr inhibition, peanut PDH/ADH; type: biochemical
Description: (§1) Kinetic parameters of purified recombinant proteins were determined from assays conducted at varying arogenate (19.5 μM-5 mM) and prephenate concentration (23.4 μM-6 mM). Standard assay conditions were 25 mM HEPES pH 7.6, 50 mM KCl and 10% (v/v) ethylene glycol, and 0.5 mM NADP^+ with varied substrate, concentrations. Reactions were initiated by addition of enzyme and incubated at 37° C. monitored every 10-15 seconds at […] using a microplate reader (Tecan Genios). Kinetic parameters were determined by fitting initial velocity data to the Michaelis-Menten equation using the Origin software (OriginLab).
(§2) Arogenate was prepared by enzymatic conversion of prephenate (Sigma-Aldrich) as previously reported^56. For Tyr inhibition assays, Tyr was dissolved in a slightly basic solution (0.025 N NaOH) due to solubility issues, thus the concentration of lysis buffer was increased to 500 mM HEPES final concentration to buffer against the changes by addition of Tyr in the reaction. Reactions containing varying amounts of Tyr (10 μM-8 mM) with 0.5 mM NADP^+ and either 1 mM arogenate or 0.8 mM prephenate were monitored as above.

[2] = target: T1, GmncADH (Gm14g05990), soybean (Glycine max) noncanonical arogenate dehydrogenase, wild type (Glycine max, UniProt I1M7P5); test: ADH and PDH assay: steady-state kinetics and Tyr inhibition, GmncADH wild type; type: biochemical; settings: 0.5 mM NADP^+, pH 7.6, 37° C.
T1 construct: wild type
T1 sequence (I1M7P5 1-266): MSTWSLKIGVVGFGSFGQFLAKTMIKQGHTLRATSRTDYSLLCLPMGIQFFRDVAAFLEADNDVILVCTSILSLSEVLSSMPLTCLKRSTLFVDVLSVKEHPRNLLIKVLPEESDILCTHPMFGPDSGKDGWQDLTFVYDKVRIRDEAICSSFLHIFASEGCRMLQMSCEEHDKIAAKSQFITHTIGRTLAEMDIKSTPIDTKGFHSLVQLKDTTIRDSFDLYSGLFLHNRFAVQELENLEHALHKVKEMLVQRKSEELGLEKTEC
Description: as §1, §2

[3] = target: T2, MtncADH (Mt5g083530), Medicago truncatula noncanonical arogenate dehydrogenase, wild type (Medicago truncatula, UniProt A0A217FAR3); test: ADH and PDH assay: steady-state kinetics and Tyr inhibition, MtncADH wild type; type: biochemical; settings: kcat/Km
T2 construct: wild type
T2 sequence (A0A217FAR3 1-266): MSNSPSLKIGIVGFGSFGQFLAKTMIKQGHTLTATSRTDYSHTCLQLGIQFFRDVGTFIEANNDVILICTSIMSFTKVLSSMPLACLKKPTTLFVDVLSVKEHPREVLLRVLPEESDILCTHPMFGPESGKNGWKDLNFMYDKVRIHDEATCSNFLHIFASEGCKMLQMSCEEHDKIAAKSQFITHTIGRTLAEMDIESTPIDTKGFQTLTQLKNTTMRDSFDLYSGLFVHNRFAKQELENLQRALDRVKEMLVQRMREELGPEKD
Description: as §1, §2

[4] = target: T3, Glycine max GmPDH1 variant N222D, SEQ ID NO: 2 (Glycine max, UniProt I1MYY4, N222D); test: ADH and PDH assay: steady-state kinetics and Tyr inhibition, GmPDH1 N222D; type: biochemical, Glycine max (soybean); settings: 0.5 mM NADP^+, pH 7.6, 37° C.
T3 sequence (I1MYY4 1-271 N222D): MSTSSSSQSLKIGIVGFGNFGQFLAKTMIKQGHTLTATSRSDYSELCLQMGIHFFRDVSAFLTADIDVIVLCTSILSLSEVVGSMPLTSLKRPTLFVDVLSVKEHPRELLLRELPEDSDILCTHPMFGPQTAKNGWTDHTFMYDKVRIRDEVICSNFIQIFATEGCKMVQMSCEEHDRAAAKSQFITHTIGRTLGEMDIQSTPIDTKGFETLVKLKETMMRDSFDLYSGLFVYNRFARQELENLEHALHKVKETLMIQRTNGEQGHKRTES
Description: as §1, §2

[5] = target: T4, Medicago truncatula MtPDH variant C220D, SEQ ID NO: 1 (Medicago truncatula, UniProt A0A0A0R205, C220D); test: ADH and PDH assay: steady-state kinetics and Tyr inhibition, MtPDH C220D; type: biochemical; settings: compared to wild-type MtPDH
T4 sequence (A0A0A0R205 1-268 C220D): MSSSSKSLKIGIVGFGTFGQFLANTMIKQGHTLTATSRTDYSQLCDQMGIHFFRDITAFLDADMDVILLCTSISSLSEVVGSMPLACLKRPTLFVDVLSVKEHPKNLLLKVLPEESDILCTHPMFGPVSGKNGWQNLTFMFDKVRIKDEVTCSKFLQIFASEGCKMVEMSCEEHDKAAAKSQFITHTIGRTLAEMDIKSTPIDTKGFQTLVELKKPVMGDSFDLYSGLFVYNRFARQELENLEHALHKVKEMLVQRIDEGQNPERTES
Description: as §1, §2

[6] = target: T5, Glycine max GmncADH variant D218N (Glycine max, UniProt I1M7P5, D218N); test: ADH and PDH assay: steady-state kinetics and Tyr inhibition, GmncADH D218N; type: biochemical, Glycine max (soybean); settings: versus wild-type GmncADH
T5 construct: D218N by site-directed mutagenesis
T5 sequence (I1M7P5 1-266 D218N): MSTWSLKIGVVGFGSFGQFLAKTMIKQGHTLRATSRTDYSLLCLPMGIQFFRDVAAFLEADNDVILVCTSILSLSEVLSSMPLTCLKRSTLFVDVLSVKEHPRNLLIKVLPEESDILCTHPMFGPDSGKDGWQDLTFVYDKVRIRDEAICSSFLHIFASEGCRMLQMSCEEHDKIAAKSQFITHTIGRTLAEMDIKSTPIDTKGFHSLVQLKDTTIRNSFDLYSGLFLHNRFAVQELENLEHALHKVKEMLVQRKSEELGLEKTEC
Description: as §1, §2

[7] = system: Methanosaeta harundinacea MhTyrAp variant Q227E; test: Kinetic analysis of MhTyrAp Q227E mutant; type: biochemical
Description: FIGS. 14A-14B show a kinetic analysis of MhTyrAp wild-type and Q227E mutant enzymes. Kinetic analysis was performed with MhTyrAp wild-type (filled circle) and Q227E mutant (open square) enzymes using various concentrations of prephenate (FIG. 14A) and arogenate (FIG. 14B). Initial velocity values at each substrate concentration were fit to the Michaelis-Menten equation using Origin software. Kinetic analyses were conducted for MhTyrA wild-type using 3.41 μg of purified recombinant enzyme, and 4.56 μg and 2.28 μg of purified recombinant Q227E using prephenate and arogenate, respectively.
ADH and PDH assays were performed using purified recombinant enzymes for SsTyrA and MhTyrA Wt and Q227E mutant, while the E. coli cell lysate was used for OiTyrA as expression and purification of this enzyme was unsuccessful. Reactions contained 0.8 mM substrate (arogenate or prephenate) and 0.8 mM cofactor (NADP+ or NAD+) together with reaction buffer (25 mM HEPES pH 7.6, 50 mM KCl, 10% (v/v) ethylene glycol). For OiTyrA assays containing cell lysates, reactions were incubated for 45 minutes and analyzed using HPLC as previously reported (Schenck et al., 2015). For pure enzymes, reactions were monitored every 10-15 seconds for reduced cofactor at A340 nm using a microplate reader (Tecan Genios). Kinetic parameters of purified recombinant enzymes were determined from assays containing varying concentrations of arogenate (39.1 μM-5 mM) or prephenate (39.1 μM-5 mM) substrate and monitored 10-15 seconds for reduced cofactor at A340 nm using a microplate reader (Tecan Genios). Kinetic parameters were determined by fitting initial velocity data to the Michaelis-Menten equation using Origin software (OriginLab) from technical replicate assays (n=3). Arogenate substrate was prepared by enzymatic conversion of prephenate (Sigma-Aldrich). All enzyme assays were conducted at a reaction time and protein concentration that were in the linear range and proportional to reaction velocity.

[8] = arogenate versus prephenate, from references 29, 34; cited from earlier work

Which results are given for `N[C@@H](CC1(C(=O)O)C=CC(O)C=C1)C(=O)O` (stereo partly drawn) [arogenate]?
Km ([1]; 0.5 mM NADP^+, pH 7.6, 37° C.): 0.28 ± 0.03 mM; kcat ([1]; 0.5 mM NADP^+, pH 7.6, 37° C.): 3.2 ± 0.1 s⁻¹; kcat/Km ([1]; 0.5 mM NADP^+, pH 7.6, 37° C.): 11,430 M^−1 s^−1; kcat/Km ([1]; FIG. 7A, with NADP^+): 11.6 mM⁻¹ s⁻¹; kcat [2]: 27.7 s⁻¹; fold more efficient (preference) with arogenate over prephenate [3]: ~6,200 fold and 6,190 fold; kcat [4]: 27.8 s⁻¹; fold lower Km [5]: 3 fold; fold reduction of kcat/Km for ADH [6]: ~6 fold; fold higher Km than that of wild-type for prephenate [7]: 10 fold; fold higher catalytic efficiency with arogenate than with prephenate [7]: roughly 2 fold; kcat ([7]; NADP+ cofactor, pH 7.6): 0.704 ± 0.06 s⁻¹; kcat/Km ([7]; NADP+ cofactor, pH 7.6): 200 M⁻¹ s⁻¹ and 213 ± 10 M⁻¹ s⁻¹; Km ([7]; NADP+ cofactor, pH 7.6, read-out: Km): 3.3 mM and 3.29 mM

B1: AaPDH: prephenate dehydrogenase from Aquifex aeolicus, PDB 3GGG (protein)
chain: MQNVLIVGVGFMGGSFAKSLRRSGFKGKIYGYDINPESISKAVDLGIIDEGTTSIAKVEDFSPDFVMLSSPVRTFREIAKKLSYILSEDATVTDQGSVKGKLVYDLENILGKRFVGGHPIAGTEKSGVEYSLDNLYEGKKVILTPTKKTDKKRLKLVKRVWEDVGGVVEYMSPELHDYVFGVVSHLPHAVAFALVDTLIHMSTPEVDLFKYPGGGFKDFTRIAKSDPIMWRDIFLENKENVMKAIEGFEKSLNHLKELIVREAEEELVEYLKEVKIKRMEI
modifications: A. aeolicus; misc_feature (1)..(281): A.aeolicus AaPDH
notes: prephenate dehydrogenase from Aquifex aeolicus, PDB 3GGG
Which “substrate specificity (in words)” value [8] does the source give for B1 here?
Its value is “prefers prephenate”.
